# Measurements as given in patent publication US20050192347A1, “Urea and thiourea compounds and compositions for cholesterol management and related uses” (priority 2003, published 2005).
# Legend:
# primary rat hepatocytes = assay: Inhibition of lipid synthesis ([1-14C]-acetate incorporation) in primary cultures of rat hepatocytes; type: cell-based; conditions: 0-300 μM
# Experimental: Compounds were tested for inhibition of lipid synthesis in primary cultures of rat hepatocytes. Male Sprague-Dawley rats were anesthetized with intraperitoneal injection of sodium pentobarbital (80 mg/kg). Rat hepatocytes were isolated essentially as described by the method of Seglen (Seglen, P. O. Hepatocyte suspensions and cultures as tools in experimental carcinogenesis. J. Toxicol. Environ. Health 1979, 5, 551-560). Hepatocytes were suspended in Dulbecco's Modified Eagles Medium containing 25 mM D-glucose, 14 mM HEPES, 5 mM L-glutamine, 5 mM leucine, 5 mM alanine, 10 mM lactate, 1 mM pyruvate, 0.2% bovine serum albumin, 17.4 mM non-essential amino acids, 20% fetal bovine serum, 100 nM insulin and 20 μg/mL gentamycin) and plated at a density of 1.5×10^5 cells/cm^2 on collagen-coated 96-well plates. Four hours after plating, media was replaced with the same media without serum. Cells were grown overnight to allow formation of monolayer cultures. Lipid synthesis incubation conditions were initially assessed to ensure the linearity of [1-^14C]-acetate incorporation into hepatocyte lipids for up to 4 hours. Hepatocyte lipid synthesis inhibitory activity was assessed during incubations in the presence of 0.25 μCi [1-^14C]-acetate/well (final radiospecific activity in assay is 1 Ci/mol) and 0, 1, 3, 10, 30, 100 or 300 μM of compounds for 4 hours. At the end of the 4-hour incubation period, medium was discarded and cells were washed twice with ice-cold phosphate buffered saline and stored frozen prior to analysis. To determine total lipid synthesis, 170 μl of MicroScint-E® and 50 μl water was added to each well to extract and partition the lipid soluble products to the upper organic phase containing the scintillant. Lipid radioactivity was assessed by scintillation spectroscopy in a Packard TopCount NXT.
# obese female Zucker rats = assay: Oral daily treatment of obese female Zucker rats for fourteen days: serum lipids, glycemic control indicators, body weight; type: in vivo, rat; conditions: 14 days; for Glucose, Percent Change from Pre-treatment: blood, 6-hour fast; for Glucose, Percent Change from Pre-treatment / BHA, Percent Change from Pre-treatment / NEFA, Percent Change from Pre-treatment / HDL-C/nonHDL-C / HDL-C, Percent Change from Pre-treatment / Insulin, Percent Change from Pre-treatment / Non HDL-C, Percent Change from Pre-treatment / TC, Percent Change from Pre-treatment / TG, Percent Change from Pre-treatment: oral; for % wt. gain: oral gavage; for BHA, Percent Change from Pre-treatment: serum beta hydroxy butyric acid; for NEFA, Percent Change from Pre-treatment: serum non-esterified fatty acids; for HDL-C/nonHDL-C: serum ratio; for HDL-C, Percent Change from Pre-treatment / Insulin, Percent Change from Pre-treatment / Non HDL-C, Percent Change from Pre-treatment / TC, Percent Change from Pre-treatment / TG, Percent Change from Pre-treatment: serum
# Experimental: In a number of different experiments, illustrative compounds A and A1 of the invention were administered daily at a dose of up to 100 mg/kg to chow-fed obese female Zucker rats for fourteen days in the morning by oral gavage in 1.5% carboxymethylcellulose/0.2% Tween-20 or 20% ethanol/80% polyethylene glycol (dosing vehicles). Animals were weighed daily. Animals were allowed free access to rodent chow and water throughout the study except on days of blood sampling where food was restricted for six hours prior to blood sampling. Blood glucose was determined after the 6-hour fast in the afternoon without anesthesia from a tail vein. Serum was also prepared from pretreatment blood samples subsequently obtained from the orbital venous plexus (with O2/CO2 anesthesia) and following the fourteenth dose at sacrifice from the heart following O2/CO2 anesthesia. Serums were assayed for lipoprotein cholesterol profiles, triglycerides, total cholesterol, NonHDL cholesterol, HDL cholesterol, the ratio of HDL cholesterol to that of Non-HDL cholesterol, insulin, non-esterified fatty acids, and beta hydroxy butyric acid. The percent body weight gain and the ratio of liver to body weight was also determined. These are shown as absolute values or as a percent change of the pretreatment values in Table 4. [drawing 300]
# [1] = Rattus norvegicus, Hepatocyte, 4 h
smiles,measurement,setting,value
"CC(CO)(CCCCNC(=O)NCCCc1ccccc1)c1ccccc1 (centres unmarked) [Compound 223, 1-(6-Hydroxy-5-methyl-5-phenylhexyl)-3-(3-phenylpropyl)urea]",IC50,primary rat hepatocytes; 4 hours,77 µM
same,IC50,primary rat hepatocytes; [1],137 µM
"CCOC(=O)CCCCCNC(=O)NCCCCC(C)(CO)c1ccccc1 (centres unmarked) [Compound 225, Ethyl 6-(3-(6-hydroxy-5-methyl-5-phenylhexyl)ureido)hexanoate]",IC50,primary rat hepatocytes; [1],128 µM
"CC(C)(CO)CCCCNC(=O)NCCCCc1ccccc1 [Compound 217, 1-(6-Hydroxy-5,5-dimethylhexyl)-3-(4-phenylbutyl)urea]",IC50,primary rat hepatocytes; [1],221 µM
"CC(CO)(CCCCCNC(=O)NCCCCC(C)(CO)c1ccccc1)c1ccccc1 (centres unmarked) [Compound 226, 1-(6-Hydroxy-5-methyl-5-phenylhexyl)-3-(7-hydroxy-6-methyl-6-phenylheptyl)urea]",IC50,primary rat hepatocytes; [1],88 µM
"CC(C)(CO)CCCCNC(=O)NCCCCC(C)(CO)c1ccccc1 (centres unmarked) [Compound 220, 1-(6-Hydroxy-5,5-dimethylhexyl)-3-(6-hydroxy-5-methyl-5-phenylhexyl)urea]",IC50,primary rat hepatocytes; [1],8.8 µM
"CCOC(=O)CCCCCNC(=O)NCCCCC(C)(C)CO [Compound 219, Ethyl 6-(3-(6-hydroxy-5,5-dimethylhexyl)ureido)hexanoate]",IC50,primary rat hepatocytes; [1],82 µM
"CC(CO)(CCCCCNC(=O)NCCCCCC(C)(CO)c1ccccc1)c1ccccc1 (centres unmarked) [Compound 231, 1,3-Bis(7-hydroxy-6-methyl-6-phenylheptyl)urea]",IC50,primary rat hepatocytes; [1],39 µM
"CC(C)(CO)CCCCNC(=O)NCCCc1ccccc1 [Compound 216, 1-(6-Hydroxy-5,5-dimethylhexyl)-3-(3-phenylpropyl)urea]",IC50,primary rat hepatocytes; [1],51 µM
"CC(CO)(CCCCNC(=O)NCCc1ccccc1)c1ccccc1 (centres unmarked) [Compound 222, 1-(6-Hydroxy-5-methyl-5-phenylhexyl)-3-phenethylurea]",IC50,primary rat hepatocytes; [1],264 µM
"CC(CO)(CCCCCNC(=O)NCCc1ccccc1)c1ccccc1 (centres unmarked) [Compound 227, 1-(7-Hydroxy-6-methyl-6-phenylheptyl)-3-phenethylurea]",IC50,primary rat hepatocytes; [1],223 µM
COC(=O)CCCNC(=O)NCCCCCC(C)(CO)c1ccccc1 (centres unmarked) [Compound 230],IC50,primary rat hepatocytes; [1],103 µM
"CC(C)(CO)CCCCNC(=S)NCCCCC(C)(C)CO [Compound A1, 1,3-bis-(6-hydroxy-5,5-dimethylhexyl)-thiourea]","Glucose, Percent Change from Pre-treatment",obese female Zucker rats; 30 mg/kg/day,−4%
same,"Glucose, Percent Change from Pre-treatment",obese female Zucker rats; 100 mg/kg/day,−15%
same,% wt. gain,obese female Zucker rats; 30 mg/kg/day,10%
same,% wt. gain,obese female Zucker rats; 100 mg/kg/day,7%
same,"BHA, Percent Change from Pre-treatment",obese female Zucker rats; 30 mg/kg/day,283%
same,"BHA, Percent Change from Pre-treatment",obese female Zucker rats; 100 mg/kg/day,305%
same,"NEFA, Percent Change from Pre-treatment",obese female Zucker rats; 30 mg/kg/day,11%
same,"NEFA, Percent Change from Pre-treatment",obese female Zucker rats; 100 mg/kg/day,34%
same,HDL-C/nonHDL-C,obese female Zucker rats; 30 mg/kg/day,2.0
same,HDL-C/nonHDL-C,obese female Zucker rats; 100 mg/kg/day,1.3
same,"HDL-C, Percent Change from Pre-treatment",obese female Zucker rats; 30 mg/kg/day,−11%
same,"Insulin, Percent Change from Pre-treatment",obese female Zucker rats; 30 mg/kg/day,−29%
same,"Non HDL-C, Percent Change from Pre-treatment",obese female Zucker rats; 30 mg/kg/day,32%
same,"TC, Percent Change from Pre-treatment",obese female Zucker rats; 30 mg/kg/day,−9%
same,"TG, Percent Change from Pre-treatment",obese female Zucker rats; 30 mg/kg/day,7%
same,"HDL-C, Percent Change from Pre-treatment",obese female Zucker rats; 100 mg/kg/day,2%
same,"Insulin, Percent Change from Pre-treatment",obese female Zucker rats; 100 mg/kg/day,10%
same,"Non HDL-C, Percent Change from Pre-treatment",obese female Zucker rats; 100 mg/kg/day,−29%
same,"TC, Percent Change from Pre-treatment",obese female Zucker rats; 100 mg/kg/day,−7%
same,"TG, Percent Change from Pre-treatment",obese female Zucker rats; 100 mg/kg/day,−15%
"CC(CO)(CCCCCNC(=O)NCCCc1ccccc1)c1ccccc1 (centres unmarked) [Compound 228, 1-(7-hydroxy-6-methyl-6-phenylheptyl)-3-(3-phenylpropyl)urea]",IC50,primary rat hepatocytes; [1],101 µM
"CC(C)(CO)CCCCNC(=O)NCCCC(C)(C)CO [Compound 213, 1-(5-Hydroxy-4,4-dimethylpentyl)-3-(6-hydroxy-5,5-dimethylhexyl)urea]",IC50,primary rat hepatocytes; [1],34 µM
"CC(C)(CO)CCCCNC(=O)NCCCCC(C)(C)CO [A, 1,3-bis-(6-hydroxy-5,5-dimethyl-hexyl)-urea]","Glucose, Percent Change from Pre-treatment",obese female Zucker rats; 100 mg/kg/day,2%
same,% wt. gain,obese female Zucker rats; 100 mg/kg/day,4%
same,"BHA, Percent Change from Pre-treatment",obese female Zucker rats; 100 mg/kg/day,172%
same,"NEFA, Percent Change from Pre-treatment",obese female Zucker rats; 100 mg/kg/day,8%
same,HDL-C/nonHDL-C,obese female Zucker rats; 100 mg/kg/day,2.7
same,"HDL-C, Percent Change from Pre-treatment",obese female Zucker rats; 100 mg/kg/day,92%
same,"Insulin, Percent Change from Pre-treatment",obese female Zucker rats; 100 mg/kg/day,60%
same,"Non HDL-C, Percent Change from Pre-treatment",obese female Zucker rats; 100 mg/kg/day,−5%
same,"TC, Percent Change from Pre-treatment",obese female Zucker rats; 100 mg/kg/day,50%
same,"TG, Percent Change from Pre-treatment",obese female Zucker rats; 100 mg/kg/day,−31%
